Experimental data reported in patent publication US9676773B2, “Azaindole derivative” (TAIHO PHARMACEUTICAL CO., LTD., priority 2014, dated 2017).

Experiments:
[1] = molecular target: T1, purified recombinant human JAK1 protein (Homo sapiens, UniProt P23458); test: Measurement of JAK1 kinase-inhibitory activity; type: biochemical; conditions: substrate peptide 1 μM, ATP 75 M (so in the source), 25° C., 120 minutes
T1 construct: purchased Carna Biosciences, Inc
Procedure: 1) Measurement of JAK1 Kinase-Inhibitory Activity
The activity of the compound of the present invention to inhibit the activity of JAK1 kinase was measured.
(§1) Among materials for the measurement of this inhibitory activity, a substrate peptide and a kinase protein were acquired as follows. As such a substrate peptide, a substrate peptide for QSS Assist™ JAK1-MSA assay kit (Carna Biosciences, Inc.) was purchased. As such a kinase protein, a purified recombinant human JAK1 protein (Carna Biosciences, Inc.) was purchased.
The method for measuring the inhibitory activity is as follows. First, the compounds of the present invention were each dissolved in dimethyl sulfoxide (DMSO), and a serial dilution was then prepared by the use of DMSO. Subsequently, a serial dilution solution of the compound (the final concentration of DMSO upon a kinase reaction: 5.0%) or DMSO (final concentration: 5.0%) was mixed with a solution containing the substrate peptide (final concentration: 1 μM), magnesium chloride (final concentration: 5 mM) and ATP (final concentration: 75 µM) in a buffer for kinase reaction (20 mM HEPES (pH 7.5), 2 mM dithiothreitol and 0.01% Triton X-100). Thereafter, a JAK1 protein was further added to the mixed solution, and the obtained mixture was then incubated at 25° C. for 120 minutes to carry out a kinase reaction. To the reaction solution, EDTA was added to a final concentration of 30 mM, so as to terminate the reaction. Finally, with LabChip EZ Reader II (Perkin Elmer Corp.), an unphosphorylated substrate peptide (S) and a phosphorylated peptide (P) were subjected to microchannel capillary electrophoresis, so that the two peptides were separated from each other and were then detected. The amount of a phosphorylation reaction was obtained based on the heights of the peaks of S and P, and the concentration of the compound capable of inhibiting 50% of the phosphorylation reaction was defined as an IC50 value (nM).

[2] = molecular target: T2, purified recombinant human JAK3 protein (Homo sapiens, UniProt P52333); test: Measurement of JAK3 kinase-inhibitory activity; type: biochemical; conditions: substrate peptide 1 μM, ATP 5 μM, 25° C., 80 minutes
T2 construct: purchased Carna Biosciences, Inc
T2 sequence (P52333 1-1124): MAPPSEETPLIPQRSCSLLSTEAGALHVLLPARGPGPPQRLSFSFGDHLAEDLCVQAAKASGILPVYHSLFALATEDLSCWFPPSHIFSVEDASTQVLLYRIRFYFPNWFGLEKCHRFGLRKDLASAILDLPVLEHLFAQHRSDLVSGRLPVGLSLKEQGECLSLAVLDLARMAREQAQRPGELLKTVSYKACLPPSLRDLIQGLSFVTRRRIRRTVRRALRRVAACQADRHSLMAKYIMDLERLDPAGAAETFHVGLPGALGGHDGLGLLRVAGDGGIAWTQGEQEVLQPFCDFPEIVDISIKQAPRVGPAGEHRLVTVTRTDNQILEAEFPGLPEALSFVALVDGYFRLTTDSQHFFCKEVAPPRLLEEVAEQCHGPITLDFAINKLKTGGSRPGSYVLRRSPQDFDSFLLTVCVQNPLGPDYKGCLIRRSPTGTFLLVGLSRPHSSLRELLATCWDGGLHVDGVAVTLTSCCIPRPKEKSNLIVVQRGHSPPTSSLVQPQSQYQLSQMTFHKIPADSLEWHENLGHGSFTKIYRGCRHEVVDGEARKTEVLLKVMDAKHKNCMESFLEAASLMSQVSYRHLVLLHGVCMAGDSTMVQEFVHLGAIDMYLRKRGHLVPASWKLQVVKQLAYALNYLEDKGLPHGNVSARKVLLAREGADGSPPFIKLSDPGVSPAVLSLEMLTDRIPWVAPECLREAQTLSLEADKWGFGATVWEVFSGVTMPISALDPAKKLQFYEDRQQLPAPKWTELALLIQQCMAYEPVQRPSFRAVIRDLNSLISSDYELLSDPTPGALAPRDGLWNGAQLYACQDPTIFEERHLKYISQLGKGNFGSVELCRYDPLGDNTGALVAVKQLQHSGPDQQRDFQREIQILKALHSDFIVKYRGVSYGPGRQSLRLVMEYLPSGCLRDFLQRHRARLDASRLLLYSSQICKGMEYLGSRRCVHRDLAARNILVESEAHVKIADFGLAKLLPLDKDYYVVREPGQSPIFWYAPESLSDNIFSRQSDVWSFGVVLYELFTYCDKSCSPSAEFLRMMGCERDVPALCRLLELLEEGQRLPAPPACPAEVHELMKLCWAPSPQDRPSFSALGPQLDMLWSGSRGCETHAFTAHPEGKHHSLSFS
Procedure: 3) Measurement of JAK3 Kinase-Inhibitory Activity
The activity of the compound of the present invention to inhibit the activity of JAK3 kinase was measured.
as §1, with “JAK3-MSA” for “JAK1-MSA”, “JAK3” for “JAK1”
The method for measuring the inhibitory activity is as follows. First, a serial dilution of the compound of the present invention was prepared by the same method as that described in the above section regarding JAK1. This serial dilution solution (the final concentration of DMSO upon a kinase reaction: 5.0%) or DMSO (final concentration: 5.0%) was mixed with a solution containing the substrate peptide (final concentration: 1 μM), magnesium chloride (final concentration: 5 mM) and ATP (final concentration: 5 μM) in a buffer for kinase reaction (20 mM HEPES (pH 7.5), 2 mM dithiothreitol and 0.01% Triton X-100). Thereafter, a JAK3 protein was further added to the mixed solution, and the obtained mixture was then incubated at 25° C. for 80 minutes to carry out a kinase reaction. To the reaction solution, EDTA was added to a final concentration of 30 mM, so as to terminate the reaction. After termination of the reaction, the measurement and the data analysis were carried out by the same methods as those described in the above section regarding JAK1.

T1 sequence (P23458 whole entry): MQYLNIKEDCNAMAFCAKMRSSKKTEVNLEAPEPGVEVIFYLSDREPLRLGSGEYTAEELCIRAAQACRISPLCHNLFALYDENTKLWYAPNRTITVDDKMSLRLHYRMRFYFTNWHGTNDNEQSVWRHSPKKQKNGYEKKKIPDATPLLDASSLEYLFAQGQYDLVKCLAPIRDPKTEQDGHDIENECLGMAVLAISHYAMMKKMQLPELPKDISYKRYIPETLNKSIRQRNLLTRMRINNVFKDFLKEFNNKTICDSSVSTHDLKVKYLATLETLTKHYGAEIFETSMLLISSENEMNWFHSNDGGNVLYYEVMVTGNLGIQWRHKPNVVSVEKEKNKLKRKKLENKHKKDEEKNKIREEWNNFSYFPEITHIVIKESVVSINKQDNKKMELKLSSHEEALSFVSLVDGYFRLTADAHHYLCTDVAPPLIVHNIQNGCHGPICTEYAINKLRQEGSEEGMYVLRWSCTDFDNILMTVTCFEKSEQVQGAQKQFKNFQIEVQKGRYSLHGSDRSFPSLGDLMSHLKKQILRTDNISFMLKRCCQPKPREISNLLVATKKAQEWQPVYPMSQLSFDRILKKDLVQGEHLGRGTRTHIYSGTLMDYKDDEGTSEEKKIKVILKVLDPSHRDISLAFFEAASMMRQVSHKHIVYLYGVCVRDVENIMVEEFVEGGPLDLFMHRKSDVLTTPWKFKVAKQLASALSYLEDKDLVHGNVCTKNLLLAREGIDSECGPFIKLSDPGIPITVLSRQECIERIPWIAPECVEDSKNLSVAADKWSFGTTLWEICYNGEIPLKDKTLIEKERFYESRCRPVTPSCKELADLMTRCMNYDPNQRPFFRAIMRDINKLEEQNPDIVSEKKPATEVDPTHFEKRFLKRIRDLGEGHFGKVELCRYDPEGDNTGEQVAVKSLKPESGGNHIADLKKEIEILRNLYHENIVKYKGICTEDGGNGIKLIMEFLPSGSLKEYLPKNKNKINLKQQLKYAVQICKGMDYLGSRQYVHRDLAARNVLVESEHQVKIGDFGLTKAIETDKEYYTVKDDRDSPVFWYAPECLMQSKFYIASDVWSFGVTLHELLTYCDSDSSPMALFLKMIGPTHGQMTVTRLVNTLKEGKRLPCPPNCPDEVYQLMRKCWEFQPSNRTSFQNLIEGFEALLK

Row | SMILES | IC50 [1] [nM] | IC50 [2] [nM]
1 | C=CC(=O)N[C@H]1CCC=C(c2ccnc3[nH]cc(-c4ccno4)c23)C1 [Compound 59] | 1500 | < 0.3
2 | C=CC(=O)NC1CCC=C(c2ccnc3[nH]cc(-c4cnco4)c23)C1 (stereo not drawn) [Compound 48, N-(3-(3-(Oxazol-5-yl)-1H-pyrrolo[2,3-b]pyridin-4-yl)cyclohex-3-en-1-yl)acrylamide] | 2400 | < 0.3
3 | Cc1nc(-c2c[nH]c3ncc(-c4ccccc4)cc23)cs1 [Comparative Example 3, 2-Methyl-4-(5-phenyl-1H-pyrrolo[2,3-b]pyridin-3-yl)thiazole, reference compound] | 2900 | 460
4 | C=CC(=O)NC1CCC=C(c2ccnc3[nH]cc(-c4nnco4)c23)C1 (stereo not drawn) [Compound 49, N-(3-(3-(1,3,4-Oxadiazol-2-yl)-1H-pyrrolo[2,3-b]pyridin-4-yl)cyclohex-3-en-1-yl)acrylamide] | 3400 | < 0.3
5 | C1=C(c2ccnc3[nH]ccc23)CCC1 [Comparative Example 2, 4-(Cyclopent-1-en-1-yl)-1H-pyrrolo[2,3-b]pyridine, reference compound] | 2200 | 350
6 | C=CC(=O)NC1CCC=C(c2ccnc3[nH]cc(-c4nncs4)c23)C1 (stereo not drawn) [Compound 54] | 6900 | 0.45
7 | C=CC(=O)NC1CCC=C(c2ccnc3[nH]cc(-c4cc(CO)co4)c23)C1 (stereo not drawn) [Compound 14, N-(3-(3-(4-(Hydroxymethyl)furan-2-yl)-1H-pyrrolo[2,3-b]pyridin-4-yl)cyclohex-3-en-1-yl)acrylamide] | 3200 | < 0.3
8 | C=CC(=O)NC1CCC=C(c2ccnc3[nH]cc(-c4ccco4)c23)C1 (stereo not drawn) [Compound 12, N-(3-(3-(Furan-2-yl)-1H-pyrrolo[2,3-b]pyridin-4-yl)cyclohex-3-en-1-yl)acrylamide] | 780 | < 0.3

Continued by falling IC50 [1], values first:

Row | IC50 [1] [nM] | IC50 [2] [nM] | SMILES
9 | 4400 | < 0.3 | C=CC(=O)NC1CCC=C(c2ccnc3[nH]cc(-c4ccc(F)nc4)c23)C1 (stereo not drawn) [Compound 37, N-(3-(3-(6-Fluoropyridin-3-yl)-1H-pyrrolo[2,3-b]pyridin-4-yl)cyclohex-3-en-1-yl)acrylamide]
10 | 3900 | < 0.3 | C=CC(=O)NC1CCC=C(c2ccnc3[nH]cc(-c4nn(C)c(=O)o4)c23)C1 (stereo not drawn) [Compound 53, N-(3-(3-(4-Methyl-5-oxo-4,5-dihydro-1,3,4-oxadiazol-2-yl)-1H-pyrrolo[2,3-b]pyridin-4-yl)cyclohex-3-en-1-yl)acrylamide]
11 | 3500 | 0.57 | C=CC(=O)NC1CC=C(c2ccnc3[nH]cc(-c4nnco4)c23)C1 (stereo not drawn) [Compound 57, N-(3-(3-(1,3,4-Oxadiazol-2-yl)-1H-pyrrolo[2,3-b]pyridin-4-yl)cyclopent-3-en-1-yl)acrylamide]
12 | 2400 | < 0.3 | C=CC(=O)NC1CCC=C(c2ccnc3[nH]cc(C4=CCOC4)c23)C1 (stereo not drawn) [Compound 34, N-(3-(3-(2,5-Dihydrofuran-3-yl)-1H-pyrrolo[2,3-b]pyridin-4-yl)cyclohex-3-en-1-yl)acrylamide]
13 | 1900 | < 0.3 | C=CC(=O)NC1CCC=C(c2ccnc3[nH]cc(-c4ccc(CO)o4)c23)C1 (stereo not drawn) [Compound 10, N-(3-(3-(5-(Hydroxymethyl)furan-2-yl)-1H-pyrrolo[2,3-b]pyridin-4-yl)cyclohex-3-en-1-yl)acrylamide]
14 | 1900 | < 0.3 | C=CC(=O)NC1CCC=C(c2ccnc3[nH]cc(-c4cn[nH]c4)c23)C1 (stereo not drawn) [Compound 3, N-(3-(3-(1H-Pyrazol-4-yl)-1H-pyrrolo[2,3-b]pyridin-4-yl)cyclohex-3-en-1-yl)acrylamide]
15 | 1200 | 250 | C1=C(c2ccnc3[nH]ccc23)CCCC1 [Comparative Example 1, reference compound]
16 | 1100 | 0.42 | C=CC(=O)NC1CCC=C(c2ccnc3[nH]cc(-c4cccnc4OC)c23)C1 (stereo not drawn) [Compound 6, N-(3-(3-(2-Methoxypyridin-3-yl)-1H-pyrrolo[2,3-b]pyridin-4-yl)cyclohex-3-en-1-yl)acrylamide]
17 | 1000 | < 0.3 | C=CC(=O)N[C@H]1CCC=C(c2ccnc3[nH]cc(-c4nnco4)c23)C1 [Compound 55, (S)—N-(3-(3-(1,3,4-Oxadiazol-2-yl)-1H-pyrrolo[2,3-b]pyridin-4-yl)cyclohex-3-en-1-yl)acrylamide]
18 | 740 | < 0.3 | C=CC(=O)NC1CCC=C(c2ccnc3[nH]cc(-c4ccccc4)c23)C1 (stereo not drawn) [Compound 1, N-(3-(3-Phenyl-1H-pyrrolo[2,3-b]pyridin-4-yl)cyclohex-3-en-1-yl)acrylamide]
